Results as given in ChEMBL document CHEMBL1201862, “PubChem BioAssay data set” (2004).
Activity calls are given as the source filed them. Rule as the data show it: actives have a measured IC50 and inactives only a lower limit.

Target: Envelope glycoprotein gp160 (Human immunodeficiency virus 1, UniProt Q6QLK5)
Experiment: cell-free HIV fusion peptide-binding blockers – biochemical, uHTS, fluorescence dequenching, […] (AID 1986)

Chain of Envelope glycoprotein gp160 (Q6QLK5 whole entry, the tested form may be a part): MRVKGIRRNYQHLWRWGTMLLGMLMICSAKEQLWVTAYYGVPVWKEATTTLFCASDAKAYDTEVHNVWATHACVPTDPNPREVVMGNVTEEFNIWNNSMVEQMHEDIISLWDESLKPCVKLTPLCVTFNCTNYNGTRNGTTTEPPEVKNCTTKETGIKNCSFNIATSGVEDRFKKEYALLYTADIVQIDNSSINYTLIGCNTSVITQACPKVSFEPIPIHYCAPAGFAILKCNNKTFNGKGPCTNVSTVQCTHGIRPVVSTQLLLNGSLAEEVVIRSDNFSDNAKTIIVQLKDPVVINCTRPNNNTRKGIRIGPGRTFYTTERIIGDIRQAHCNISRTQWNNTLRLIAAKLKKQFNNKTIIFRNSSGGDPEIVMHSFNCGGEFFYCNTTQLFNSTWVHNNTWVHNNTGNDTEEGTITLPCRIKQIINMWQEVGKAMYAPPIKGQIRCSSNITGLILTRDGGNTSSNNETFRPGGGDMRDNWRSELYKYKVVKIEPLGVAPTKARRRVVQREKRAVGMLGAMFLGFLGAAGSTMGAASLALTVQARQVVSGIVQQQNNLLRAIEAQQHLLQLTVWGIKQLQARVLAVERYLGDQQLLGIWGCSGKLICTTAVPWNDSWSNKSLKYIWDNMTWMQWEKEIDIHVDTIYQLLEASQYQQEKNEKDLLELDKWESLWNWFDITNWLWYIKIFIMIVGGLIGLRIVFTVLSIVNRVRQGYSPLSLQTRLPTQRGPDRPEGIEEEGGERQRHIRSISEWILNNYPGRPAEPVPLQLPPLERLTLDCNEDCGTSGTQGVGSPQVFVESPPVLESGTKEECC

In the case of `CCc1nnc(NS(=O)(=O)c2ccc(NC(=S)NC(=O)/C=C/c3cccs3)cc2)s1`, the IC50 is reported as 22.6 µM (active).
